Assay results: patent US20260308158A1, “TARGETING RNAS ASSOCIATED WITH TAUOPATHIES WITH SMALL MOLECULES” (University of Florida Research Foundation, Incorporated, priority 2023, published 2026)

Key:
Type in all cases: cell-based
[1] = test system: WT MAPT mini-gene pre-mRNA; assay: Chem-CLIP / C-Chem-CLIP in HeLa cells transfected with WT mini-gene; conditions: HeLa, WT mini-gene
Description: Measuring Cellular Occupancy by Chem-CLIP and C-Chem-CLIP. LAN5 cells were grown to ~80% confluency in 100 mm diameter dishes. HeLa cells were transfected as described in the Luciferase Reporter Assay to Study Exon 10 Alternative Splicing except they were re-plated in 100 mm diameter dishes and grown to ~80% confluency (~1 day). The cells were then treated with 1.5 μM of 3 or 4 for 12 h. For C-Chem-CLIP, dilutions of competing compounds 1 or 2 were pre-incubated with cells for 12 h prior to adding 3. After addition of 3, the cells were incubated for an additional 12 h. After the treatment period, whether for Chem-CLIP or C-Chem-CLIP studies, the cells were washed with 10 mL of 1×DPBS. Ice-cold 1×DPBS (10 mL) was then added to the plate followed by irradiation with 365 nm light in a UV Stratalinker 2400 (Stratagene). Cells were scraped with a cell scraper, transferred to a 15 mL conical vial, and collected by centrifugation. Total RNA was extracted using TRIzol LS Reagent (Invitrogen) per the manufacturer's protocol. […]
RT-qPCR was performed on RNA samples before and after pull-down as described in Real-Time Quantitative PCR to enable calculation of fold enrichment in the pulled down samples. Relative fold enrichment of tau pre-mRNA was measured using Equation 3: […]

[2] = test system: WT I17T MAPT exon 10 mini-gene luciferase reporter; assay: Luciferase reporter assay, WT I17T mutant mini-gene in HeLa cells; conditions: Homo sapiens, 48 h, 5 μM (highest dose), read-out: reduction of luciferase activity
Description: Luciferase-reporter Assay to Study Exon 10 Alternative Splicing. The exon 10 mini-genes, both WT and DDPAC and mutant thereof, fused to firefly luciferase, have been previously described.^18 HeLa cells were seeded in 60 mm diameter dishes and incubated for 12-16 h to 70% confluency. They were then transfected with WT, WT+I17T, DDPAC, or DDPAC+I17T luciferase reporter minigenes using JetPrime (Polyplus Transfection) per the manufacturer's recommended protocol and incubated for 4 h. After transfection, the cells were collected by trypsinization and re-seeded in 96-well plates at 0.2×10^5 cells per well, followed by treatment of compounds after 4 h. Compound stocks prepared in DMSO were diluted in growth medium and added to cells with final DMSO concentration at 0.1% (v/v). After a 48 h treatment period, the cells were washed with 1× DPBS. Each well was added with a mixture of 10 μL WST-1 reagent and 90 μL of growth medium. After incubation at 37° C. for 45 min, absorbance was measured at 450 and 690 nm. A690 as background was subtracted from A450 to obtain A450′. […] The plate was incubated at room temperature for 20 min and the luminescence was measured with a […] plate reader (1000 ms integration time). The resulted luminescence was normalized to A450′.

[3] = test system: DDPAC MAPT mini-gene (exon 10 splicing); assay: 4R/3R MAPT mRNA by RT-qPCR, HeLa cells transfected with DDPAC mini-gene
Description: RNA Isolation and Real-Time Quantitative PCR (RT-qPCR). HeLa cells were treated as described in the Luciferase Reporter assay to Study Exon 10 Alternative Splicing. LAN5 cells were seeded in 12-well plates at 0.2×10^6 cells per well, treated with compound or ASO, and incubated for 48 h. Compound stocks prepared in DMSO and ASO stocks prepared in water were diluted in growth medium and added to cells. Total RNA was extracted from cells and analyzed via RT-qPCR to determine levels of 3R and 4R tau mRNA. In brief, the cells were washed with 1×DPBS and then lysed in the well using 300 μL of Lysis Buffer provided in a Quick-RNA MiniPrep kit (Zymo Research), which was used to extract total RNA per the manufacturer's protocol including the on-column DNase I digestion. The concentration of total RNA was measured by NanoDrop 2000 (Thermo Fisher Scientific). Only samples with OD260/OD280>1.8 were carried forward for analysis. Reverse transcription (RT) was carried out on 200 ng of total RNA using a qScript cDNA synthesis kit (QuantaBio) in a total volume of 10 μL according to the manufacturer's protocol. […] 4R/3R ratio were analyzed using ΔΔCt method using Equation 2: […]

Question: `COc1cc(N)ncc1CCCN(C)CCCn1cnc2c3ccccc3n(C)c2c1=O` [Compound 2, 3-(3-((3-(6-amino-4-methoxypyridin-3-yl)propyl)(methyl)amino)propyl)-5-methyl-3,5-dihydro-4H-pyrimido[5,4-b]indol-4-one] was tested. Which “competition of the interaction of 3 with reporter” value [1] did it give?
Answer: Its value is “competed dose dependently”.

Question: And the inhibition at 5 µM [2]?
Answer: The inhibition at 5 µM was roughly 15%.

Question: And the “PSI10 (PSI of MAPT exon 10) vs vehicle” value ([3]; HeLa, DDPAC mini-gene)?
Answer: The value was “downregulated”.

Question: What about the inhibition at 1.5 µM ([3]; Homo sapiens, 2 at 1.5 μM, 48 h, HeLa DDPAC mini-gene, read-out: reduction of 4R/3R ratio (mRNA)) of the same compound?
Answer: The inhibition at 1.5 µM was 42 ± 3%.
